# Results from ChEMBL document CHEMBL4665653, “VU6005806/AZN-00016130, an advanced M positive allosteric modulator (PAM) profiled as a potential preclinical development candidate” (Bioorg Med Chem Lett, 2019).
# What was measured:
# [1] = target: Substance-P receptor (Homo sapiens) (UniProt P25103); assay: Displacement of [3H]substance P from recombinant full length human NK1R expressed in CHO cells assessed as residual binding level for radioligand at 10 uM after 90 mins by radiometric scintillation analysis relative to control; assay type: cell-based
# Substance-P receptor (Homo sapiens), sequence (P25103 whole entry): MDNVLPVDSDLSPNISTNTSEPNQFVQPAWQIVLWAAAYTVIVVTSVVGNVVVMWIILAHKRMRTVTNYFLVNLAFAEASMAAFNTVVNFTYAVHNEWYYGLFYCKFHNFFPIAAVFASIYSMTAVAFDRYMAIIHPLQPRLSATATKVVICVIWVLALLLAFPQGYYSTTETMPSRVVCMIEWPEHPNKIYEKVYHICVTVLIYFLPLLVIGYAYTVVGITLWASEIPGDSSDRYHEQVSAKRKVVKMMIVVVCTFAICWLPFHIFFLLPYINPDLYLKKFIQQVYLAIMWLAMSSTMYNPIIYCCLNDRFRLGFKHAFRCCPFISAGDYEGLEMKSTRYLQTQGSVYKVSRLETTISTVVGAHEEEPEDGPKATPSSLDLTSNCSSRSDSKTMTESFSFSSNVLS
# [2] = Brain to plasma permeability coefficient, Kp in cynomolgus monkey; assay type: ADME, Macaca fascicularis
# [3] = target: Sodium-dependent serotonin transporter (Homo sapiens) (UniProt P31645); assay: Displacement of [3H]paroxetine from full length recombinant human SET expressed in HEK293 cells assessed as residual binding level for radioligand at 10 uM after 60 mins by radiometric scintillation analysis relative to control; assay type: cell-based
# Rattus norvegicus [4] = organism: Rattus norvegicus; assay: Displacement of [3H]Muscimol from GABAA channel muscimol binding site in Wistar rat brain assessed as residual binding level for radioligand at 10 uM incubated for 10 mins by scintillation counting analysis relative to control; assay type: tissue-based
# [5] = target: Estrogen receptor (Homo sapiens) (UniProt P03372); assay: Displacement of [3H]estradiol from recombinant full length human recombinant ERalpha receptor expressed in Sf9 insect cells assessed as residual binding level for radioligand at 10 uM measured after 120 mins by radiometric scintillation analysis relative to contro
# Estrogen receptor (Homo sapiens), sequence (P03372 whole entry): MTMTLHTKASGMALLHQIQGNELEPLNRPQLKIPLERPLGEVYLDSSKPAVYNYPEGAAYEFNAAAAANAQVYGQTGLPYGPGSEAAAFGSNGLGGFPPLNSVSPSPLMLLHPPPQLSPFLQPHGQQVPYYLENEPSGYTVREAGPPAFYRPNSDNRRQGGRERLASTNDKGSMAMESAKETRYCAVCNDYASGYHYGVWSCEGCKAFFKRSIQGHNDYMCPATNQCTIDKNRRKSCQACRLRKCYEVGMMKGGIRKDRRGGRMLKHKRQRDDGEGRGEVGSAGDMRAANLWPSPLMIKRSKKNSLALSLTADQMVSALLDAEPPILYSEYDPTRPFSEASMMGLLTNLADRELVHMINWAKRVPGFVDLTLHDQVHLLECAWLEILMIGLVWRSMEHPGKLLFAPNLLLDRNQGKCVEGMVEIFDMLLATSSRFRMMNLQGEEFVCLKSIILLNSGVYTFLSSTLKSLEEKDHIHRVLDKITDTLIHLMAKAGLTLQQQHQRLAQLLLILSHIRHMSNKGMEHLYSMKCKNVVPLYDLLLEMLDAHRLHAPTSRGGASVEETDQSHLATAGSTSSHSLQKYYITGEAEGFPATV
# P-gp = assay: Substrate activity at human P-gp expressed in MDCK-MDR1 cells assessed as efflux ratio; assay type: ADME, cell-based
# [6] = target: Muscarinic acetylcholine receptor M4 (Rattus norvegicus, UniProt P08485); assay: Positive allosteric modulation of rat M4 receptor
# [7] = target: Muscarinic acetylcholine receptor M3 (Homo sapiens, UniProt P20309); assay: Positive allosteric modulation of human M3 receptor
# [8] = Solubility of the compound pH 7.5; assay type: physicochemical; conditions: buffer
# Rattus norvegicus [9] = organism: Rattus norvegicus; assay: Displacement of [35S] dATPalphaS from P2Y receptor in Wistar rat brain at 10 uM incubated for 180 mins by radiometric scintillation analysis relative to control; assay type: tissue-based
# [10] = target: 5-hydroxytryptamine receptor 1A (Homo sapiens) (UniProt P08908); assay: Displacement of [3H]-8-OH-DPAT from full length recombinant human 5HT1A receptor expressed in CHO-K1 cells assessed as residual binding level for radioligand at 10 uM incubated for 60 mins by radiometric scintillation analysis relative to control; assay type: cell-based
# 5-hydroxytryptamine receptor 1A (Homo sapiens), sequence (P08908 whole entry): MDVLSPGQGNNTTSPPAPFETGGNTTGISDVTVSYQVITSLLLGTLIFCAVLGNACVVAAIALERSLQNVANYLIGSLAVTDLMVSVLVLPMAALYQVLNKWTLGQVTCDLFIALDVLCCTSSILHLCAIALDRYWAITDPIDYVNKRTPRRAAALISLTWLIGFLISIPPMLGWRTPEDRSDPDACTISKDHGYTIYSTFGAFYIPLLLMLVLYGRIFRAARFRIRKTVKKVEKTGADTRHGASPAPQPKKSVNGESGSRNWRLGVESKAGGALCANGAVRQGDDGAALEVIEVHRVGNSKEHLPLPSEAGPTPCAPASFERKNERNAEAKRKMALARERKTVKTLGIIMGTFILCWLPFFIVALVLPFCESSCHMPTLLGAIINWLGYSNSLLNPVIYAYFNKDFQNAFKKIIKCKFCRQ
# [11] = target: B1 bradykinin receptor (Homo sapiens) (UniProt P46663); assay: Displacement of [3H]desArg10-KD from human recombinant Bradykinin B1 receptor expressed in CHO-K1 cells assessed as residual binding level for radioligand at 10 uM incubated for 60 mins by radiometric scintillation analysis relative to control; assay type: cell-based
# [12] = target: Sodium-dependent noradrenaline transporter (Homo sapiens) (UniProt P23975); assay: Displacement of [125I]RTI-55 from full length recombinant human NET expressed in MDCK cells assessed as residual binding level for radioligand at 10 uM after 180 mins by radiometric scintillation analysis relative to control; assay type: cell-based
# [13] = target: Muscarinic acetylcholine receptor M1 (Homo sapiens, UniProt P11229); assay: Positive allosteric modulation of human M1 receptor
# Muscarinic acetylcholine receptor M1, sequence (P11229 whole entry): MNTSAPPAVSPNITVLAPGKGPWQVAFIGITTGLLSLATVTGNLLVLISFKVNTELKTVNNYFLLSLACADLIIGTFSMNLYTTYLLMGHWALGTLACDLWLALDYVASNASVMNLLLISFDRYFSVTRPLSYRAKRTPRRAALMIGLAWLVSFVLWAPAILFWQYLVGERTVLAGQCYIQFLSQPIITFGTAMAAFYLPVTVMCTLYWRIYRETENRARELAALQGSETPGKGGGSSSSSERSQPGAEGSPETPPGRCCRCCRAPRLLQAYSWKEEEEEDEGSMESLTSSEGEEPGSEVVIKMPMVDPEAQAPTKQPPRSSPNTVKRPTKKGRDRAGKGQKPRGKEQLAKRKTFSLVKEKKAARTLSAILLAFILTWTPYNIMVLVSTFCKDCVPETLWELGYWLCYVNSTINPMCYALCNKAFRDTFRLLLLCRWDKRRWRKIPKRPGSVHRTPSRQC
# [14] = target: Epidermal growth factor receptor (Homo sapiens) (UniProt P00533); assay: Displacement of [125I]-EGF from human EGF receptor expressed in A-431 cells assessed as residual binding level for radioligand at 10 uM incubated for 60 mins by radiometric scintillation analysis relative to control; assay type: cell-based
# Epidermal growth factor receptor (Homo sapiens), sequence (P00533 whole entry): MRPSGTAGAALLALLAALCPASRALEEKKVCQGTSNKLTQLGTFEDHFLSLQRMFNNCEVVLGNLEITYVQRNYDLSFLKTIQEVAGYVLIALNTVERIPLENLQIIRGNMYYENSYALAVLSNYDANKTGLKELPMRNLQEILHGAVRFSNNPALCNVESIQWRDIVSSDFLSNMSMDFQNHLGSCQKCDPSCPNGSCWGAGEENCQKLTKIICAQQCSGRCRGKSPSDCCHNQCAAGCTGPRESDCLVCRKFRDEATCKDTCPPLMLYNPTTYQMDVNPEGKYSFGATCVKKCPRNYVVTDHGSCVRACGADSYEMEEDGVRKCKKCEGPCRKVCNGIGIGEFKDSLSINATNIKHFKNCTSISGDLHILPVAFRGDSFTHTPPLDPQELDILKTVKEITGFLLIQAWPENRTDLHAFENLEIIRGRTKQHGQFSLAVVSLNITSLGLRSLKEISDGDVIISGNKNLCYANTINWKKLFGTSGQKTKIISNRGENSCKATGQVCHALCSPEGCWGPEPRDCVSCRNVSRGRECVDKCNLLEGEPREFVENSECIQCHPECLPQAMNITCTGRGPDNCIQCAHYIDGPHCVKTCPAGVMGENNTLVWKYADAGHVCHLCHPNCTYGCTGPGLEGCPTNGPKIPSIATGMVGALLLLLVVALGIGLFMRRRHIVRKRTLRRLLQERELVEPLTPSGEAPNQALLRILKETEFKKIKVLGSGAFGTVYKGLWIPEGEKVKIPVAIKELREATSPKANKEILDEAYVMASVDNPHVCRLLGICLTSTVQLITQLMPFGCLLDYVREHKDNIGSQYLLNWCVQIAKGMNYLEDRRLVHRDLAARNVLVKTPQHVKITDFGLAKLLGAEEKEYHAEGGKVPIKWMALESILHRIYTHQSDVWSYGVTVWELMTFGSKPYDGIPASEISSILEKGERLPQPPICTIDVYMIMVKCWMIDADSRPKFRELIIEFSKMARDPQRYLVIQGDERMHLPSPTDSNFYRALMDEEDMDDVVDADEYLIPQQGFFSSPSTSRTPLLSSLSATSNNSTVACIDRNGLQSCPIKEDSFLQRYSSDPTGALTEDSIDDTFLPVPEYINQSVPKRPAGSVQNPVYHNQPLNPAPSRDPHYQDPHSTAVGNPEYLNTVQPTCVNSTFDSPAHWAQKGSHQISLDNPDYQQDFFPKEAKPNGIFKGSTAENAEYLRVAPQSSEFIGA
# [15] = target: Muscarinic acetylcholine receptor M3 (Rattus norvegicus, UniProt P08483); assay: Positive allosteric modulation of rat M3 receptor
# Muscarinic acetylcholine receptor M3 (Rattus norvegicus, UniProt P08483), sequence (P08483 whole entry): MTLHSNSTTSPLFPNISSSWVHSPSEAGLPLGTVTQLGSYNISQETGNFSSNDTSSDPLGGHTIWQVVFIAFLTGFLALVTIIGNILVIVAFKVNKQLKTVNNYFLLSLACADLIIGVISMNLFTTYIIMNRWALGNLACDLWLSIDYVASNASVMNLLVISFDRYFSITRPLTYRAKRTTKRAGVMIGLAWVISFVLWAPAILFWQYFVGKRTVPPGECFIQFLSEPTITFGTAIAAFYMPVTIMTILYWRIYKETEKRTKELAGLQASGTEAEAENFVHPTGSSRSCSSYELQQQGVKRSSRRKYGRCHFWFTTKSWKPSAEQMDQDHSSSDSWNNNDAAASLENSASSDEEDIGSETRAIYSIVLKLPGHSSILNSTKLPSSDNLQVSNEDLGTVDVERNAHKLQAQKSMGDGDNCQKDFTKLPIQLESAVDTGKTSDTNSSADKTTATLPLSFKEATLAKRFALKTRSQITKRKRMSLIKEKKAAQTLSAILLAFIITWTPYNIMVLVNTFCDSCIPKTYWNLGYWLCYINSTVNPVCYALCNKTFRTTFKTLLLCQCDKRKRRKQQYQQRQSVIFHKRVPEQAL
# [16] = target: Gamma-aminobutyric acid type B receptor subunit 1 (Homo sapiens) (UniProt Q9UBS5); assay: Displacement of [3H]CGP-54626 from human recombinant full length GABAB1 receptor expressed in CHO-K1 cells assessed as residual binding level for radioligand at 10 uM incubated for 180 mins by scintillation counting analysis relative to control; assay type: cell-based
# [17] = target: Muscarinic acetylcholine receptor M2 (Homo sapiens) (UniProt P08172); assay: Displacement of [3H]N-Methylscopolamine from full length human recombinant muscarinic M2 receptor expressed in CHO-K1 cells assessed as residual binding level for radioligand at 10 uM measured after 120 mins by radiometric scintillation analysis relative to control; assay type: cell-based
# Muscarinic acetylcholine receptor M2 (Homo sapiens), sequence (P08172 whole entry): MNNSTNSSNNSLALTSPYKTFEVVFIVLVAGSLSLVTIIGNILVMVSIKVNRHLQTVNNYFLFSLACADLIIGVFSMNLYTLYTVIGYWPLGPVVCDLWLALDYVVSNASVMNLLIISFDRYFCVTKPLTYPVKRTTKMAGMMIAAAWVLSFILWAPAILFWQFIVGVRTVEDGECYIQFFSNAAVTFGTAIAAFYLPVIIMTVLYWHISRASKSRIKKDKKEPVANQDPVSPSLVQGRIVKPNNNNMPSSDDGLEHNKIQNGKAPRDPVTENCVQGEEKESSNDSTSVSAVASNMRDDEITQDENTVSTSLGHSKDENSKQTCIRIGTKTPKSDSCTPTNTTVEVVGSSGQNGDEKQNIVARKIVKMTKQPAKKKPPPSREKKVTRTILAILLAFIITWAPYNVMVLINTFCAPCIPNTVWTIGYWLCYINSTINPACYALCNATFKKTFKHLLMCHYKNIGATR
# [18] = Unbound brain-to-plasma concentration ratio in Sprague-Dawley rat at 0.1 to 0.2 mg/kg, iv measured after 1.5 hrs; assay type: ADME, organism-based; conditions: dose 0.1-0.2 mg/kg, read-out: K(p,uu,brain)
# [19] = target: Histamine H3 receptor (Homo sapiens) (UniProt Q9Y5N1); assay: Displacement of [3H]-N-alpha-Methylhistamine from full length recombinant human recombinant Histamine H3 receptor expressed in CHO-K1 cells assessed as residual binding level for radioligand at 10 uM incubated for 120 mins by scintillation counting analysis relative to control; assay type: cell-based
# Histamine H3 receptor (Homo sapiens), sequence (Q9Y5N1 whole entry): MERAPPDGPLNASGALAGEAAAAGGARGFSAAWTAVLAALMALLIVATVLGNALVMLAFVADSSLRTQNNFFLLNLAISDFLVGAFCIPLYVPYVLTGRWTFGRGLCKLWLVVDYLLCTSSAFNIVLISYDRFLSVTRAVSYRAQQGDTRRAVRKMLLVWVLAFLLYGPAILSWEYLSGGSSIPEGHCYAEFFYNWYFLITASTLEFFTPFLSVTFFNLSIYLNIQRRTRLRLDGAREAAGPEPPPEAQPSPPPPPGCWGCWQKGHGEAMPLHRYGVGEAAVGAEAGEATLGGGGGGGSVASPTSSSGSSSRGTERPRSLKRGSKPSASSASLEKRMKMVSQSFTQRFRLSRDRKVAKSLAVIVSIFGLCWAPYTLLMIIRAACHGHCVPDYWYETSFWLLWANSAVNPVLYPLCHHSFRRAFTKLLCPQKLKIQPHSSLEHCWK
# [20] = target: Adenosine receptor A2a (Homo sapiens) (UniProt P29274); assay: Displacement of [3H]CGS-21680 from full length recombinant human A2A receptor expressed in HEK293 cells assessed as residual binding level for radioligand at 10 uM measured after 90 mins radiometric scintillation analysis relative to control; assay type: cell-based
# Adenosine receptor A2a (Homo sapiens), sequence (P29274 whole entry): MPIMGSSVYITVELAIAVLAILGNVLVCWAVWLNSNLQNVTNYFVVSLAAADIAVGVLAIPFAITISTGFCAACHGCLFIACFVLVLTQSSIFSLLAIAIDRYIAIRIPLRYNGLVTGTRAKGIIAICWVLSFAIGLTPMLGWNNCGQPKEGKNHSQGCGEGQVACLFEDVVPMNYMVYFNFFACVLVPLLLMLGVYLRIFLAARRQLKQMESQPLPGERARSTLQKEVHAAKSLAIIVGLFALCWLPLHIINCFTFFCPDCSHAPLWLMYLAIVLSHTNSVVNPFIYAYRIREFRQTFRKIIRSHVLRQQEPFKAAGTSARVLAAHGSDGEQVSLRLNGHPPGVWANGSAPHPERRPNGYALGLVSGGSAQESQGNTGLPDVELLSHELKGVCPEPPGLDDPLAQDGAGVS
# [21] = Distribution coefficient, log D of the compound pH 7.5; assay type: physicochemical; conditions: octanol/water
# hERG (KCNH2) = hERG (KCNH2) (Homo sapiens, UniProt Q12809); assay: Displacement of [3H]-Astemizole from human recombinant full length ERG channel expressed in HEK293 cells assessed as residual binding level for radioligand at 10 uM incubated for 60 mins by scintillation counting analysis relative to control; assay type: cell-based; conditions: probe [3H]-Astemizole, read-out: INH
# Rattus norvegicus [22] = organism: Rattus norvegicus; assay: Displacement of [3H]-Rolipram from phosphodiesterases PDE4 receptor rolipram binding site in Wistar rat brain assessed as residual binding level for radioligand at 10 uM incubated for 60 mins; assay type: tissue-based
# [23] = target: Muscarinic acetylcholine receptor M5 (Homo sapiens, UniProt P08912); assay: Positive allosteric modulation of human M5 receptor
# Rattus norvegicus [24] = assay: Reversal of amphetamine-induced hyperlocomotion in po dosed rat assessed as minimum effective dose; assay type: functional; conditions: read-out: MED
# Rattus norvegicus [25] = organism: Rattus norvegicus; assay: Displacement of [3H]-MDL105519 from NMDA glutamate receptor glycine binding site in Wistar rat brain assessed as residual binding level for radioligand at 10 uM incubated for 30 mins by scintillation counting analysis relative to control; assay type: tissue-based
# [26] = target: Adenosine receptor A3 (Homo sapiens) (UniProt P0DMS8); assay: Displacement of [125I]AB-MECA from recombinant full length human adenosine A3 receptor expressed in CHO-K1 cells assessed as residual binding level for radioligand at 10 uM after 60 mins by radiometric scintillation analysis relative to control; assay type: cell-based
# Mus musculus = assay: Reversal of amphetamine-induced hyperlocomotion in po dosed C57BL/6 mouse assessed as minimum effective dose pretreated for 30 mins after habituation in chamber followed by amphetamine challenge and measured after 1 hr; assay type: functional; conditions: C57BL/6, po, 0.5 h, read-out: MED
# [27] = target: 5-hydroxytryptamine receptor 3A (Homo sapiens) (UniProt P46098); assay: Displacement of [3H]GR-65630 from full length human recombinant 5HT3 receptor expressed in HEK293 cells assessed as residual binding level for radioligand at 10 uM measured after 60 mins by radiometric scintillation analysis relative to control; assay type: cell-based
# Rattus norvegicus [28] = organism: Rattus norvegicus; assay: Displacement of [3H]-Batrachotoxinin from Wistar rat sodium channel site 2 assessed as residual binding level for radioligand at 10 uM incubated for 60 mins by scintillation counting analysis relative to control; assay type: tissue-based; conditions: Brain
compound,measurement,setting,value
COc1nnc2sc(C(=O)NC3CN(c4ncc(C(F)(F)F)cn4)C3)c(N)c2c1C,Activity,[1],> 50%
same,Kp,[2],1.7
same,Activity,[3],> 50%
same,Activity,Rattus norvegicus [4],> 50%
same,Activity,[5],> 50%
same,efflux ratio,P-gp,1.6
same,EC50,[6],28 nM
same,EC50,[7],> 30 µM
same,solubility,[8],2.9 µM
same,Activity,Rattus norvegicus [9],> 50%
same,Activity,[10],> 50%
same,Activity,[11],> 50%
same,Activity,[12],> 50%
same,EC50,[13],> 30 µM
same,Activity,[14],> 50%
same,EC50,[15],> 30 µM
same,Activity,[16],> 50%
same,Activity,[17],> 50%
same,Kp uu at 1.5 h,[18],0.35
same,Activity,[19],> 50%
same,Activity,[20],> 50%
same,logD,[21],3.73
same,"activity at 1 h, 10 µM",hERG (KCNH2),< 25%
same,Activity,Rattus norvegicus [22],> 50%
same,EC50,[23],> 30 µM
same,minimal effective dose,Rattus norvegicus [24],0.56 mg/kg
same,Activity,Rattus norvegicus [25],> 50%
same,Activity,[26],> 50%
same,minimal effective dose,Mus musculus,1 mg/kg
same,Activity,[27],> 50%
same,Activity,Rattus norvegicus [28],> 50%
